Reference: paper PMC5271319, “Identification and Characterization of a 25 kDa Protein That Is Indispensable for the Efficient Saccharification of Eisenia bicyclis in the Digestive Fluid of Aplysia kurodai” (PLoS ONE, 2017)

Biological target: T1, EHEP (Eisenia hydrolysis enhancing protein, 25 kDa) (Aplysia kurodai, UniProt A0A1B4XTR1)
T1 construct: native protein purified from digestive fluid; signal peptide 1-16 predicted to be removed; 25 kDa monomer
T1 sequence (A0A1B4XTR1 17-229): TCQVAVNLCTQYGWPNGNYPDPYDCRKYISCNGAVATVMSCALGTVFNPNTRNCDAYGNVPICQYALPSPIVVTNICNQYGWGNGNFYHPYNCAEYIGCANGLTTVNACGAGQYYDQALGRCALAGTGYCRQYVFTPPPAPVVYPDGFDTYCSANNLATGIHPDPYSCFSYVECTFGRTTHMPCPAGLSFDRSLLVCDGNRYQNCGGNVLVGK
Experiment: co-precipitation, SDS-PAGE of precipitate
Format: binding
Conditions: 50 and 100 μg in 0.1 ml; 50 mM acetate pH 5.5, 0.1 M NaCl, 10 mM CaCl2; 25 °C, 90 min

Question: Which “co-precipitation, SDS-PAGE of precipitate” value does the source give for `Oc1cc(O)cc(O)c1` [phloroglucinol, 1,3,5-trihydroxybenzene] here?
Answer: Its value is “EHEP was precipitated by phloroglucinol and gallic acid”.

Question: For `O=C(O)c1cc(O)c(O)c(O)c1` [gallic acid], which “co-precipitation, SDS-PAGE of precipitate” value is on record?
Answer: The value was “EHEP was precipitated by phloroglucinol and gallic acid”.
